# According to EP4653003A1, “PHARMACEUTICAL COMPOSITION HAVING CERIUM COMPOUND CONTAINING TRIVALENT CERIUM AS ACTIVE INGREDIENT” (Applause Pharma Co., Ltd., priority 2023, dated 2024):
# Tests used:
# [1] = test system: adenine nephropathy model rats; type: in vivo, Slc:Wistar rat (male)
# Description: • · Rat: Slc:Wistar rat (male) delivered at 12 weeks of age (Japan SLC, Inc.) • · Powder feed: AIN-93G powder feed (Funabashi Farm Co., Ltd.) • · Feed for laboratory animal: Labo MR Stock (Nosan Corporation) • · Adenine: (Tokyo Chemical Industry Co., Ltd.) • · Cerium oxide dispersion: Cerium oxide dispersion prepared in [Preparation of Cerium Oxide Dispersion]
# • (i) Weighed was 250 g of a powder feed, which was then kneaded with a kitchen machine. • (ii) After kneaded with a kitchen machine for 3 minutes, the feed adhered on the wall surface was scraped off, and then kneaded again for 3 minutes. Approximately 100 mL of hot water was then added evenly. • (iii) The feed was once put together by hands, and further kneaded with the kitchen machine until it became homogeneous. • (iv) The thus kneaded feed was shaped into a rod through a sausage machine. • (v) The thus shaped feed was cut into a cylindrical shape approximately 2.5 cm in diameter and 1.5 cm in thickness. • (vi) The thus shaped cylindrical feed was dried at 38°C in an incubator for two days. • (vii) The feed was weighed to estimate a proportion of residual water content, and dried until the proportion drops to 10% or below. • (viii) The prepared feed was put in a zipper bag, and stored in a refrigerator.
# A special feed was prepared by modifying step (ii) for the normal group feed, as described below. (ii) (Ade): While keeping the content under kneading, 0.625 g of adenine was added in small portions, the content was kneaded with a kitchen machine for 3 minutes, the feed adhered on the wall surface was scraped off, and the content was kneaded again for 3 minutes. Approximately 100 mL of hot water was then added evenly.
# A special feed was prepared by modifying steps (i) and (ii) for (2) Adenine Group Feed, as described below. • (i) (Ade + Dispersion (A)): Weighed was 246.1 g of the powder feed, which was then kneaded with a kitchen machine. • (ii) (Ade + Dispersion (A)): While keeping the content under kneading, 0.625 g of adenine was added in small portions, the content was kneaded with the kitchen machine for 3 minutes, the feed adhered on the wall surface was scraped off, and the content was kneaded again for 3 minutes. Next, while keeping the content under kneading, 32.7 g of cerium oxide dispersion was added in small portions, the content was kneaded with the kitchen machine for 3 minutes, the feed adhered on the wall surface was scraped off, and the content was kneaded again for 3 minutes. Approximately 70 mL of hot water was then added evenly. […]
# [2] = test system: adenine nephropathy model rats; assay: Uremic toxin lowering action by cerium chloride: indoxyl sulfate in whole blood by HPLC; type: in vivo; settings: blood collected by dissection; feed of adenine combined with cerium chloride
# Procedure: A solvent for precipitation (5.56 µmol/L 2-naphthalenesulfonic acid solution in acetonitrile) and a blood sample (whole blood) were mixed in a 1.5 mL polypropylene tube, the mixture was allowed to stand still at room temperature, and then centrifuged to cause solid-liquid separation, thereby obtaining a supernatant. A 10 mmol/L aqueous ammonium acetate solution was added to the thus obtained supernatant, and the mixture was centrifuged to obtain a supernatant. The operation above diluted the blood sample 50 times, with the final concentration of the thus-added 2-naphthalenesulfonic acid adjusted to 1 µmol/L.
# Fig. 19 illustrates a diagram, with the indoxyl sulfate concentration in the blood sample collected by dissection plotted on the ordinate, and with the total mole amount of cerium contained in 100 g of feed plotted on the abscissa.
# [3] = blood collected by dissection on Day 28, substance mixed in adenine feed, trend against content in 100 g feed
substance,measurement,setting,value
cerium(III) chloride heptahydrate [cerium chloride],blood urea nitrogen (BUN),[1]; [3],decline as the cerium chloride content in the feed increased
same,serum creatinine (CRE),[1]; [3],decline as the cerium chloride content in the feed increased
same,serum phosphorus (IP),[1]; [3],decline as the cerium chloride content in the feed increased
same,alanine aminotransferase (ALT),"[1]; rat, in vivo",equivalent to that in the normal group
same,indoxyl sulfate concentration in whole blood,[2],declining tendency
